Measurements: US4346087A, “Antibacterial surface active agent containing azaalkenelactam” (priority 1979, dated 1982)
≈ marks a conversion by molar mass, not a printed value. Like-named read-outs stand apart in the source and are kept apart here.

Columns and labels:
Assay type in all cases: cell-based
Escherichia coli NIHJ = experiment: MIC against Escherichia coli NIHJ
Text: (§1) Below are described the antibacterial activities of the compounds in the compositions according to this invention.
(§2) The testing method complied with the standard method of Japan Sociaty of Chemotherapy.

[1] = test system: Staphylococcus aureus FDA 209P; experiment: MIC against Staphylococcus aureus FDA 209P
Text: as §1, §2

[2] = test system: Desulfovibrio desulfuricans IFO 13699; experiment: MIC against Desulfovibrio desulfuricans
Text: as §1, §2

[3] = Escherichia coli, Table 2, derivatives having a carboxylate radical, heart infusion agar, 37° C., 24 hours, read-out: MIC
[4] = Staphylococcus aureus, FDA209P, 24 h
[5] = Desulfovibrio desulfuricans, IFO13699, 24 h
[6] = Table 2, derivatives having a carboxylate radical, heart infusion agar, 37° C., 24 hours

Q: How did the MIC (Escherichia coli NIHJ; [3]) turn out when CCCCCCCCc1ccc(OCCOC(C)COC(C)CN2CC[N+](CC(=O)[O-])=C(C)CC2=O)cc1 (stereo not drawn) was run?
A: Its MIC is 800 µg/mL (≈ 1500 µM).

Q: What about the MIC [1, 4] of the same molecule?
A: Its MIC is 50 µg/mL (≈ 93.9 µM).

Q: And the MIC [2, 5]?
A: The MIC was 50 µg/mL (≈ 93.9 µM).

Q: What does the source list for CCCCCCC(O)CC=CCCCCCCCC(=O)OC(C)CN1CCC[N+](CC(=O)[O-])=C(C)CC1=O (stereo not drawn)?
A: MIC (Escherichia coli NIHJ; [3]): 1600 µg/mL (≈ 2980 µM); MIC [1, 4]: 50 µg/mL (≈ 93.2 µM); MIC [2, 5]: 25 µg/mL (≈ 46.6 µM)

Q: With CCCCCCCCCCCCCCNCCN1CC[N+](C(C)C(=O)[O-])=CCC(C)C1=O (stereo not drawn) as the molecule, how does the MIC (Escherichia coli NIHJ; Escherichia coli, 24 h) read?
A: The MIC was 100 µg/mL (≈ 221 µM).

Q: What about the MIC [1, 4] of the same molecule?
A: The MIC was 6.25 µg/mL (≈ 13.8 µM).

Q: And the MIC [2, 5]?
A: The MIC was 6.25 µg/mL (≈ 13.8 µM).

Q: With “1-(2-hydroxy)dodecyl-3-methyl-1-aza-5-azoniacyclooct-4-en-2-one-5-acetate” as the molecule, how does the MIC (Escherichia coli NIHJ; [6]) read?
A: The MIC was 1600 µg/mL.

Q: And the MIC [1]?
A: The MIC was 100 µg/mL.

Q: And the MIC [2]?
A: The MIC was 50 µg/mL.

Q: Which results are given for “1-(2-hydroxyhexadecyl)aminoethyl-3-methyl-1-aza-5-azoniacyclooct-4-en-2-one-5-acetate”?
A: MIC (Escherichia coli NIHJ): 100 µg/mL; MIC [1]: 12.5 µg/mL; MIC [2]: 6.25 µg/mL

Q: “1-behenoyloxypropyl-3-methyl-1-aza-5-azoniacyclooct-4-en-2-one-5-acetate” was tested. Which MIC (Escherichia coli NIHJ) did it give?
A: Its MIC is 100 µg/mL.

Q: What about the MIC [1] of the same molecule?
A: Its MIC is 50 µg/mL.

Q: And the MIC [2]?
A: The MIC was 25 µg/mL.

Q: With “1-behenoyloxypropyl-4-methyl-1-aza-5-azoniacyclooct-4-en-2-one-5-acetate” as the molecule, how does the MIC (Escherichia coli NIHJ; [6]) read?
A: Its MIC is 3200 µg/mL.

Q: And the MIC [1]?
A: Its MIC is 100 µg/mL.

Q: What about the MIC [2] of the same molecule?
A: The MIC was 50 µg/mL.

Q: What does the source list for “1-coconutalkyl-4-methyl-1-aza-5-azoniacyclooct-4-en-2-one-5-acetate”?
A: MIC (Escherichia coli NIHJ; [6]): 3200 µg/mL; MIC [1]: 200 µg/mL; MIC [2]: 12.5 µg/mL

Q: “1-coconutalkyl-4-methyl-3,6,7,8-tetrahydro-1,5-diazocin-2-one [Example 15]” was tested. Which MIC (Escherichia coli NIHJ; Table 1, azaalkenelactams, heart infusion agar, 37° C., 24 hours) did it give?
A: The MIC was 1600 µg/mL.

Q: What about the MIC [1] of the same molecule?
A: The MIC was 50 µg/mL.

Q: What about the MIC [2] of the same molecule?
A: The MIC was 6.25 µg/mL.

Q: How did the MIC (Escherichia coli NIHJ; [6]) turn out when “1-hydroxyethyl-2-undecylimidazolineumbetaine [reference compound]” was run?
A: Its MIC is no less than 10000 µg/mL.

Q: What about the MIC [1, 6] of the same molecule?
A: The MIC was 3600 µg/mL.

Q: And the MIC [2]?
A: The MIC was 400 µg/mL.

Q: Which MIC (Escherichia coli NIHJ) does the source give for “1-nonylphenylpoly(2 moles)oxyethyleneoxyethyl-3,3-dimethyl-1-aza-5-azoniacyclooct-4-en-2-one-5-acetate” here?
A: The MIC was 400 µg/mL.

Q: What about the MIC [1] of the same molecule?
A: Its MIC is 100 µg/mL.

Q: And the MIC [2]?
A: Its MIC is 50 µg/mL.

Q: What does the source list for “1-octadecylaminopropyl-4-methyl-1-aza-5-azoniacyclooct-4-en-2-one-5-propionate”?
A: MIC (Escherichia coli NIHJ): 100 µg/mL; MIC [1]: 6.25 µg/mL; MIC [2]: 6.25 µg/mL

Q: Which results are given for “4-(2-hydroxyhexadecyl)aminoethyl-6-methyl-1-azonia-4-azacyclohept-7-en-5-one-1-acetate”?
A: MIC (Escherichia coli NIHJ): 100 µg/mL; MIC [1]: 12.5 µg/mL; MIC [2, 6]: 3.12 µg/mL

Q: What does the source list for “4-behenoyloxypropyl-6-methyl-2,3,6,7-tetrahydro-1,4-diazocin-5-one [Example 68]”?
A: MIC (Escherichia coli NIHJ): 200 µg/mL; MIC [1]: 100 µg/mL; MIC [2]: 25 µg/mL

Q: With “4-behenoyloxypropyl-6-methyl-4aza-1-azoniacyclooct-8-en-5-one-1-acetate” as the molecule, how does the MIC (Escherichia coli NIHJ; [6]) read?
A: Its MIC is 800 µg/mL.

Q: What about the MIC [1] of the same molecule?
A: Its MIC is 200 µg/mL.

Q: And the MIC [2]?
A: The MIC was 25 µg/mL.

Q: Which results are given for “4-isostearamidoethyl-7-methyl-1-azonia-4-azacyclohept-7-en-5-one-1-acetate”?
A: MIC (Escherichia coli NIHJ; [6]): 3200 µg/mL; MIC [1]: 50 µg/mL; MIC [2]: 25 µg/mL

Q: Which MIC (Escherichia coli NIHJ) does the source give for “4-methylbenzylpoly(2 moles)oxypropyleneoxypropyl-6-methyl-2,3,6,7-tetrahydro-1,4-diazocin-5-one [Example 67]” here?
A: Its MIC is 400 µg/mL.

Q: What about the MIC [1] of the same molecule?
A: Its MIC is 200 µg/mL.

Q: And the MIC [2]?
A: Its MIC is 50 µg/mL.

Q: What does the source list for “4-methylbenzylpoly(2 moles)oxypropyleneoxypropyl-6-methyl-4-aza-1-azoniacyclooct-8-en-5-one-1-acetate”?
A: MIC (Escherichia coli NIHJ; [6]): 800 µg/mL; MIC [1]: 400 µg/mL; MIC [2]: 25 µg/mL

Q: Which MIC (Escherichia coli NIHJ; [6]) does the source give for “4-octoxy(2-hydroxy)propyl-7-methyl-1-azonia-4-azacyclohept-7-en-5-one-1-acetate” here?
A: Its MIC is 800 µg/mL.

Q: And the MIC [1]?
A: The MIC was 100 µg/mL.

Q: What about the MIC [2] of the same molecule?
A: Its MIC is 25 µg/mL.

Q: “4-octoxy(2-hydroxy)propyl-7-methyl-3,6-dihydro-2H-1,4-diazepin-5-one [Example 31]” was tested. Which MIC (Escherichia coli NIHJ) did it give?
A: The MIC was 400 µg/mL.

Q: What about the MIC [1] of the same molecule?
A: The MIC was 50 µg/mL.

Q: What about the MIC [2] of the same molecule?
A: The MIC was 50 µg/mL.

Q: Which results are given for CCCCCCCCCCCCCCCCCCCCC(O)CNCCNCCN1CCC[N+](CC(=O)[O-])=C(C)CC1=O (stereo not drawn) [1-(2-hydroxy)docosylaminoethylaminoethyl-4-methyl-1-aza-5-azoniacyclooct-4-en-2-one-5-acetate]?
A: MIC (Escherichia coli NIHJ; Escherichia coli, 24 h): 50 µg/mL (≈ 82.1 µM); MIC [1, 4]: 25 µg/mL (≈ 41.1 µM); MIC [2, 5]: 6.25 µg/mL (≈ 10.3 µM)

Q: For CCCCCCCCCCCCC(O)CN1CCC[N+](CC(=O)[O-])=C(C)CC1=O (stereo not drawn) [1-(2-hydroxy)tetradecyl-4-methyl-1-aza-5-azoniacyclooct-4-en-2-one-5-acetate], which MIC (Escherichia coli NIHJ; Escherichia coli, 24 h) is on record?
A: Its MIC is 100 µg/mL (≈ 244 µM).

Q: What about the MIC [1, 4] of the same molecule?
A: The MIC was 25 µg/mL (≈ 60.9 µM).

Q: What about the MIC [2, 5] of the same molecule?
A: The MIC was 6.25 µg/mL (≈ 15.2 µM).

Q: How did the MIC (Escherichia coli NIHJ; Escherichia coli, 24 h) turn out when CCCCCCCCCCCCCCC(O)CNCCN1CCC[N+](CC(=O)[O-])=CC(C)(C)C1=O (stereo not drawn) [1-(2-hydroxyhexadecyl)aminoethyl-3,3-dimethyl-1-aza-5-azoniacyclooct-4-en-2-one-5-acetate] was run?
A: Its MIC is 100 µg/mL (≈ 202 µM).

Q: And the MIC [1, 4]?
A: The MIC was 12.5 µg/mL (≈ 25.2 µM).

Q: And the MIC [2, 5]?
A: Its MIC is 12.5 µg/mL (≈ 25.2 µM).

Q: How did the MIC (Escherichia coli NIHJ; [3]) turn out when CCCCCCCCC=CCCCCCCCCN1CCC[N+](CC(=O)[O-])=C(C)CC1=O [1-(9-octadecenyl)-4-methyl-1-aza-5-azoniacyclooct-4-en-2-one-5-acetate] was run?
A: Its MIC is 800 µg/mL (≈ 1780 µM).

Q: What about the MIC [1, 4] of the same molecule?
A: The MIC was 12.5 µg/mL (≈ 27.9 µM).

Q: What about the MIC [2, 5] of the same molecule?
A: The MIC was 12.5 µg/mL (≈ 27.9 µM).

Q: With CCCCCCCCCCCCOCC(O)CN1CCC[N+](C(C)C(=O)[O-])=C(C)CC1=O (stereo not drawn) [1-docoxy(2-hydroxy)propyl-4-methyl-1-aza-5-azoniacyclooct-4-en-2-one-5-propionate] as the molecule, how does the MIC (Escherichia coli NIHJ; [3]) read?
A: The MIC was 800 µg/mL (≈ 1760 µM).

Q: And the MIC [1, 4]?
A: The MIC was 25 µg/mL (≈ 55 µM).

Q: And the MIC [2, 5]?
A: The MIC was 12.5 µg/mL (≈ 27.5 µM).

Q: How did the MIC (Escherichia coli NIHJ; [3]) turn out when CCCCCCCCCCCCN1CCC[N+](CC(=O)[O-])=CC(C)C1=O (stereo not drawn) [1-dodecyl-3-methyl-1-aza-5-azoniacyclooct-4-en-2-one-5-acetate] was run?
A: Its MIC is 1600 µg/mL (≈ 4370 µM).

Q: What about the MIC [1, 4] of the same molecule?
A: Its MIC is 50 µg/mL (≈ 136 µM).

Q: And the MIC [2, 5]?
A: The MIC was 25 µg/mL (≈ 68.2 µM).

Q: For CCCCCCCCCCCCN1CCC[N+](CC(=O)[O-])=C(C)CC1=O [1-dodecyl-4-methyl-1-aza-5-azoniacyclooct-4-en-2-one-5-acetate], which MIC (Escherichia coli NIHJ; [3]) is on record?
A: Its MIC is 3200 µg/mL (≈ 8730 µM).

Q: And the MIC [1, 4]?
A: Its MIC is 100 µg/mL (≈ 273 µM).

Q: And the MIC [2, 5]?
A: The MIC was 12.5 µg/mL (≈ 34.1 µM).

Q: With CCCCCCCCCCCCNCCNCCNCCCN1CCC[N+](CC(=O)[O-])=C(C)CC1=O [1-dodecylaminoethylaminoethylaminopropyl-4-methyl-1-aza-5-azoniacyclooct-4-en-2-one-5-acetate] as the molecule, how does the MIC (Escherichia coli NIHJ; Escherichia coli, 24 h) read?
A: Its MIC is 100 µg/mL (≈ 196 µM).

Q: And the MIC [1, 4]?
A: The MIC was 12.5 µg/mL (≈ 24.5 µM).

Q: What about the MIC [2, 5] of the same molecule?
A: The MIC was 25 µg/mL (≈ 49 µM).

Q: Which results are given for CCCCCCCCCCCCNCCCN1CCC[N+](CC(=O)[O-])=C(C)CC1=O [1-dodecylaminopropyl-4-methyl-1-aza-5-azoniacyclooct-4-en-2-one-5-acetate]?
A: MIC (Escherichia coli NIHJ; Escherichia coli, 24 h): 100 µg/mL (≈ 236 µM); MIC [1, 4]: 12.5 µg/mL (≈ 29.5 µM); MIC [2, 5]: 50 µg/mL (≈ 118 µM)

Q: How did the MIC (Escherichia coli NIHJ; [3]) turn out when CCCCCCCCCCCC(=O)OCCN1CCC[N+](CC(=O)[O-])=C(C)CC1=O [1-lauroyloxyethyl-4-methyl-1-aza-5-azoniacyclooct-4-en-2-one-5-acetate] was run?
A: The MIC was 3200 µg/mL (≈ 7540 µM).

Q: What about the MIC [1, 4] of the same molecule?
A: The MIC was 400 µg/mL (≈ 942 µM).

Q: What about the MIC [2, 5] of the same molecule?
A: Its MIC is 25 µg/mL (≈ 58.9 µM).

Q: Which MIC (Escherichia coli NIHJ; Escherichia coli, 24 h) does the source give for CCCCCCCCCc1ccc(OCCOCCN2CCC[N+](CC(=O)[O-])=C(C)CC2=O)cc1 [1-nonylphenylpoly(2 moles)oxyethyleneoxyethyl-4-methyl-1-aza-5-azoniacyclooct-4-en-2-one-5-acetate] here?
A: Its MIC is 200 µg/mL (≈ 409 µM).

Q: And the MIC [1, 4]?
A: The MIC was 12.5 µg/mL (≈ 25.6 µM).

Q: And the MIC [2, 5]?
A: Its MIC is 25 µg/mL (≈ 51.2 µM).
